What was measured:
Experiment in all cases: Bitter taste receptor screening, calcium mobilization in HEK293T cells
Format in all cases: cell-based
TAS2R13 = target: T1, TAS2R13 (Homo sapiens, UniProt Q9NYV9)
T1 construct: first 45 amino acids of rat somatostatin type 3 receptor (SSTR3) (N); expressed in transfected cells; host or cells: HEK293T stably expressing chimeric Gα16gust44, transiently co-transfected with the pcDNA4-TAS2R vector and pCMV-GCaMP5G
T1 sequence (Q9NYV9 1-303): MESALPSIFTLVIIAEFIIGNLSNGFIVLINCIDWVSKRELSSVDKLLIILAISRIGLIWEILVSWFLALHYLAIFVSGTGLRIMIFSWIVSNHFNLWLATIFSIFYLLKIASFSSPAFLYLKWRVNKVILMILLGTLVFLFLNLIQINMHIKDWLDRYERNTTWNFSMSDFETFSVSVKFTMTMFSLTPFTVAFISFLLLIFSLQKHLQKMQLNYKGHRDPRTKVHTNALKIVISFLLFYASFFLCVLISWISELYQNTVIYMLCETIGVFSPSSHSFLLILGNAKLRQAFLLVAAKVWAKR
Procedure: (§1) Bitter taste receptor cDNA were cloned into the pcDNA4 mammalian expression vector (Invitrogen) using full coding receptor sequences reported on UniProt database. The synthetic constructs were codon optimized (Genewiz) and combine the first 45 amino acids of rat somatostatin type 3 receptor at the amino terminus to improve plasma membrane targeting of the receptors in the heterologous system. The FLAG epitope was added to the carboxy terminus without interfering with receptor functionality and can be used for immunocytochemistry. Calcium-mobilization assays were performed using human embryonic kidney cells (HEK293T) stably transfected with chimeric Gα16gust44 protein[78]. Cells were seeded in black, poly-D-lysine coated 96-well plates at a density of 35,000 cells/100 µL in high glucose DMEM supplemented with 10% dialysed fetal bovine serum and 1% penicillin/streptomycin. Twenty-four hours later, the cells were transiently co-transfected using Lipofectamine 2000 (Life Technologies) with one of the TAS2R synthetic optimized vectors or empty expression plasmid, as a negative control, and the pCMV-GCaMP5G construct (Addgene #31788) coding for a genetically encoded calcium indicator[79],[80]. Twenty-four hours after transfection, cells were washed twice with C1 buffer (130 mM NaCl, 5 mM KCl, 10 mM HEPES, 2 mM CaCl2, 5 mM sodium pyruvate, pH7.4). 3-oxo-C12:2-HSL was solved in DMSO and further diluted in C1 buffer. Next, the cells were placed in a fluorometric imaging plate reader (Flexstation® 3, Molecular Devices) and stimulated with automatic injection of increasing concentrations of AHLs. Calcium responses leading to increase in fluorescence were monitored at 510 nm after excitation at 488 nm. Experiments were performed in duplicates and repeated at least four times. The recorded calcium levels of each wells receiving the same stimulus were averaged, response of mock-transfected cells were subtracted from receptor-transfected cells and net signals were normalized to background fluorescence (F/F0, F0 fluorescence light before stimulus application). The resulting dose–response curves of the averaged fluorescent signal amplitudes against the logarithm of the agonist concentration were fitted using Sigma Plot software. For data analysis, the four-parameter logistic equation [f(x) = min + (max − min)/(1 + (x/EC50)nH)] was used to calculate the half-maximal effective concentrations (EC50 values).

TAS2R14 = target: T2, TAS2R14 (Homo sapiens, UniProt Q9NYV8); conditions: calcium response F/F0
T2 construct: first 45 amino acids of rat somatostatin type 3 receptor (SSTR3) (N); expressed in transfected cells; host or cells: HEK293T stably expressing chimeric Gα16gust44, transiently co-transfected with the pcDNA4-TAS2R vector and pCMV-GCaMP5G
T2 sequence (Q9NYV8 1-317): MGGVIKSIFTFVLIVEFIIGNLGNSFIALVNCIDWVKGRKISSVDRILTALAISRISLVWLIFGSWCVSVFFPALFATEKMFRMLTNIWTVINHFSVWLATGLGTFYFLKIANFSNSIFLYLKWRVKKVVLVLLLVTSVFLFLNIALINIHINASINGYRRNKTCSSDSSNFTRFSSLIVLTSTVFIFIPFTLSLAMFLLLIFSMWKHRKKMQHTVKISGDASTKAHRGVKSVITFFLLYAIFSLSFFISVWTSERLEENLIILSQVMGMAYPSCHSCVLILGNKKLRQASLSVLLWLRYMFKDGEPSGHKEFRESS
Procedure: as §1

TAS2R8 = target: T3, TAS2R8 (Homo sapiens, UniProt Q9NYW2)
T3 construct: first 45 amino acids of rat somatostatin type 3 receptor (SSTR3) (N); expressed in transfected cells; host or cells: HEK293T stably expressing chimeric Gα16gust44, transiently co-transfected with the pcDNA4-TAS2R vector and pCMV-GCaMP5G
T3 sequence (Q9NYW2 1-309): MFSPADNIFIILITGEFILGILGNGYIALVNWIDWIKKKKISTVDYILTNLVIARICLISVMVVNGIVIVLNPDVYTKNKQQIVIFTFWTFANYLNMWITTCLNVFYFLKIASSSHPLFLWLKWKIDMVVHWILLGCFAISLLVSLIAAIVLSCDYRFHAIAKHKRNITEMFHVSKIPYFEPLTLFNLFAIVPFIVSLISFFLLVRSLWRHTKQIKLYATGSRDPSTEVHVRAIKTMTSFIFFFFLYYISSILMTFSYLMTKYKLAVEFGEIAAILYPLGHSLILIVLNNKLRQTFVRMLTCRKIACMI
Procedure: as §1

TAS2R10 = target: T4, TAS2R10 (Homo sapiens, UniProt Q9NYW0)
T4 construct: first 45 amino acids of rat somatostatin type 3 receptor (SSTR3) (N); expressed in transfected cells; host or cells: HEK293T stably expressing chimeric Gα16gust44, transiently co-transfected with the pcDNA4-TAS2R vector and pCMV-GCaMP5G
T4 sequence (Q9NYW0 1-307): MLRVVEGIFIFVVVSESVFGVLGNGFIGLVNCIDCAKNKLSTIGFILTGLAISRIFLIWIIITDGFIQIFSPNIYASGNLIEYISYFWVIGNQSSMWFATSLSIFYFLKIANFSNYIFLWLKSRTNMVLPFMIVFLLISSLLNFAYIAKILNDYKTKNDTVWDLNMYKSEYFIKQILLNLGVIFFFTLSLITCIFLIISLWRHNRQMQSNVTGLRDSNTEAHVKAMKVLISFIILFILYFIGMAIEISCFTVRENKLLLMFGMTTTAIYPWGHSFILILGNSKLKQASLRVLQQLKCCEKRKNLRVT
Procedure: as §1

TAS2R38 = target: T5, TAS2R38 (Homo sapiens, UniProt P59533)
T5 construct: first 45 amino acids of rat somatostatin type 3 receptor (SSTR3) (N); expressed in transfected cells; host or cells: HEK293T stably expressing chimeric Gα16gust44, transiently co-transfected with the pcDNA4-TAS2R vector and pCMV-GCaMP5G
T5 sequence (P59533 1-333): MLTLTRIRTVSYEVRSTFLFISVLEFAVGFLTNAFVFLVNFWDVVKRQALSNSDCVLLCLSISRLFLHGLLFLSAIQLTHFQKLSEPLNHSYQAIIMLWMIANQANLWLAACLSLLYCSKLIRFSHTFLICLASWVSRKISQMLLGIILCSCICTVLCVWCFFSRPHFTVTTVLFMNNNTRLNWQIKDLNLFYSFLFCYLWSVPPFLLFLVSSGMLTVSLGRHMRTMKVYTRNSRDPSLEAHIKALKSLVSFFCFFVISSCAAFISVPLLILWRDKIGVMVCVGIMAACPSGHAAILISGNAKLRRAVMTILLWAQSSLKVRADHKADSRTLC
Procedure: as §1

**Q.** What does the source list for 3-oxo-C12:2-HSL?
**A.** maximum amplitude (TAS2R13; calcium response F/F0): 0.59 ± 0.03; EC50 (TAS2R13; calcium response, 0–1000 µM): 884 ± 41 µM; maximum amplitude (TAS2R14): around 0.45; maximum amplitude (TAS2R8; calcium response F/F0): around 0.45; EC50 (TAS2R8; calcium response, 0–1000 µM): 333 ± 27 µM; maximum amplitude (TAS2R10; calcium response F/F0): 0.13 ± 0.03; EC50 (TAS2R10; calcium response, 0–1000 µM): 438 ± 120 µM; maximum amplitude (TAS2R38; calcium response F/F0): 0.05 ± 0.01; EC50 (TAS2R38; calcium response, 0–1000 µM): 476 ± 125 µM

— PMC9177545, “3-oxo-C12:2-HSL, quorum sensing molecule from human intestinal microbiota, inhibits pro-inflammatory pathways in immune cells via bitter taste receptors” (Scientific Reports, 2022)
